The values that follow come from ChEMBL document CHEMBL1201862, “PubChem BioAssay data set” (2004).

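All cell lines were grown in 96-well plates and treated with compound for 48 hours. GI50: concentration for 50% inhibition of growth.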 Calls of active or inactive are those of the source. Cut-off read from the data, not from the text of the source: active = GI50 up to about 1.1 µM and inactive = higher. A value given as a limit tells only on which side of the number the result lay.

Test systems include U-251; MDA-MB-231; UACC-257; IGROV-1; RXF 393; SNB-75; HOP-62; ACHN; SK-MEL-28; SK-OV-3; NCI-H522; HCT-15; COLO 205; OVCAR-8; SF-539; SK-MEL-5; BT-549; NCI-H226; OVCAR-3; MDA-N.
Common to all, as to assay: NCI-60 cell line screen, 48 h

On to `CN(C)CCn1c(=O)c2ccc(NCCNCCO)c3c(=O)c4cc(O)ccc4n(c1=O)c23`, for which the GI50 with U-251 is 0.931 µM (active); in the experiment with MDA-MB-231, 0.586 µM (active); with UACC-257 it was 4.43 µM (inactive); in the experiment with IGROV-1, 1.05 µM (active); in the experiment with RXF 393 it was 0.586 µM (active); in the experiment with SNB-75, 1.2 µM (inactive). Further, the GI50 with HOP-62 was 0.483 µM (active); in the experiment on ACHN, 0.571 µM (active); in the experiment on SK-MEL-28, 4.43 µM (inactive); with SK-OV-3, 5.55 µM (inactive); in the experiment with NCI-H522, 0.281 µM (active); in the experiment on HCT-15, 5.31 µM. The GI50 with COLO 205 is 0.634 µM (active); in the experiment on OVCAR-8, 1.12 µM (inactive); with SF-539, 0.367 µM (active); with SK-MEL-5, 1.49 µM (inactive); in the experiment on BT-549, 10.9 µM (inactive); in the experiment with NCI-H226, 0.839 µM (active). Also, the GI50 in the experiment with OVCAR-3 is 2.55 µM (inactive); with MDA-N, 2.2 µM (inactive).
Regarding `O=C(Cl)C1=C(c2ccccc2)C1c1ccccc1` (stereo not given), the GI50 in the experiment on U-251, in the experiment on MDA-MB-231, in the experiment with UACC-257, in the experiment on IGROV-1, in the experiment on RXF 393 and with SNB-75 was > 100 µM (inactive) in each case. For the same compound, the GI50 in the experiment with HOP-62 was > 100 µM (inactive); in the experiment with ACHN, > 100 µM (inactive); in the experiment on SK-MEL-28, > 100 µM (inactive); in the experiment with SK-OV-3, > 100 µM (inactive); in the experiment with NCI-H522 it was > 100 µM (inactive); with HCT-15 it was above 100 µM. In addition, the GI50 with COLO 205, in the experiment on OVCAR-8, in the experiment with SF-539, in the experiment with SK-MEL-5, in the experiment with BT-549 and with NCI-H226 was > 100 µM (inactive) each time. Besides, the GI50 with OVCAR-3 and with MDA-N was > 100 µM (inactive) throughout.
On to `N#CC(NCCO)=C1C(=O)c2ccccc2C1=O`, for which the GI50 in the experiment on U-251, in the experiment with MDA-MB-231, in the experiment on UACC-257, with IGROV-1, in the experiment on RXF 393 and with SNB-75 was > 100 µM (inactive) throughout. The GI50 is > 100 µM (inactive) with HOP-62; > 100 µM (inactive) in the experiment with ACHN; > 100 µM (inactive) in the experiment with SK-MEL-28; > 100 µM (inactive) in the experiment on SK-OV-3; > 100 µM (inactive) with NCI-H522; above 100 µM in the experiment with HCT-15. For the same compound, the GI50 in the experiment on COLO 205, with OVCAR-8, in the experiment with SF-539, with SK-MEL-5, with BT-549 and with NCI-H226 was > 100 µM (inactive) throughout. Besides, the GI50 with OVCAR-3 and in the experiment on MDA-N was > 100 µM (inactive) in each case.
Regarding `O=C(O)C1(C(=O)O)CCN(S(=O)(=O)c2ccccc2)CC1`, the GI50 with U-251, with MDA-MB-231, in the experiment on UACC-257, in the experiment with IGROV-1, with RXF 393 and in the experiment on SNB-75 was > 100 µM (inactive) each time. For the same compound, the GI50 was > 100 µM (inactive) in the experiment with HOP-62; > 100 µM (inactive) in the experiment on ACHN; > 100 µM (inactive) in the experiment on SK-MEL-28; > 100 µM (inactive) in the experiment with SK-OV-3; > 100 µM (inactive) with NCI-H522; above 100 µM with HCT-15. In addition, the GI50 in the experiment on COLO 205, in the experiment with OVCAR-8, with SF-539, in the experiment with SK-MEL-5, in the experiment with BT-549 and with NCI-H226 was > 100 µM (inactive) throughout. In addition, the GI50 in the experiment on OVCAR-3 and with MDA-N was > 100 µM (inactive) throughout.
Take `CCN(CC)CCn1ccc(=O)c2cc3c(=O)ccn(CCN(CC)CC)c3c(C)c21`: the GI50 with U-251 is 5.89 µM (inactive); in the experiment with MDA-MB-231, 5.27 µM (inactive); in the experiment with UACC-257, 16.7 µM (inactive); with IGROV-1, 7.28 µM (inactive); with RXF 393 it was 4.56 µM (inactive); in the experiment with SNB-75, 9.91 µM (inactive). Besides, the GI50 in the experiment on HOP-62 is 7.38 µM (inactive); with ACHN it was 4.02 µM (inactive); with SK-MEL-28, 19.9 µM (inactive); with SK-OV-3, 4.13 µM (inactive); with NCI-H522 it was 6.37 µM (inactive); with HCT-15 it was 3.38 µM. The GI50 is 3.87 µM (inactive) with COLO 205; 2.87 µM (inactive) in the experiment on OVCAR-8; 11.2 µM (inactive) in the experiment on SF-539; 15.7 µM (inactive) with SK-MEL-5; 14.5 µM (inactive) in the experiment with BT-549; 10.9 µM (inactive) in the experiment with NCI-H226. The GI50 in the experiment with OVCAR-3 is 8.55 µM (inactive); in the experiment on MDA-N, 5.57 µM (inactive).
Turning to `OC1(c2ccccc2)CCN(Cc2c[nH]c3ccccc23)CC1`, the GI50 was 64.4 µM (inactive) in the experiment with U-251; 81.3 µM (inactive) in the experiment with MDA-MB-231; 18.3 µM (inactive) in the experiment on UACC-257; > 100 µM (inactive) in the experiment with IGROV-1; 63.2 µM (inactive) with RXF 393; > 100 µM (inactive) in the experiment on SNB-75. For the same compound, the GI50 is > 100 µM (inactive) in the experiment on HOP-62; > 100 µM (inactive) with ACHN; 20.7 µM (inactive) in the experiment on SK-MEL-28; > 100 µM (inactive) in the experiment with SK-OV-3; > 100 µM (inactive) in the experiment on NCI-H522; 49.5 µM in the experiment with HCT-15. The GI50 in the experiment with COLO 205 is 17.5 µM (inactive); in the experiment on OVCAR-8, > 100 µM (inactive); in the experiment with SF-539, 79.3 µM (inactive); in the experiment on SK-MEL-5, 36.3 µM (inactive); in the experiment with BT-549 it was > 100 µM (inactive); in the experiment on NCI-H226, > 100 µM (inactive). Further, the GI50 is > 100 µM (inactive) with OVCAR-3 and 30.7 µM (inactive) with MDA-N.
On to `COc1cccc2c1cc([N+](=O)[O-])c1c(C(=O)O)cc3c(c12)OCO3` [ARISTOLOCHIC ACID], for which the GI50 is 36.9 µM (inactive) with U-251; 39.1 µM (inactive) in the experiment with MDA-MB-231; 97.7 µM (inactive) in the experiment on UACC-257; 29.4 µM (inactive) in the experiment with IGROV-1; 23.4 µM (inactive) in the experiment on RXF 393; 30.9 µM (inactive) with SNB-75. In addition, the GI50 in the experiment with HOP-62 is 23.7 µM (inactive); with ACHN it was 41.6 µM (inactive); with SK-MEL-28, 41.9 µM (inactive); with SK-OV-3, 49.5 µM (inactive); in the experiment on NCI-H522, 28.1 µM (inactive); in the experiment with HCT-15, 18.2 µM. Moreover, the GI50 is 1.31 µM (inactive) in the experiment on COLO 205; 28.7 µM (inactive) in the experiment with OVCAR-8; 24.9 µM (inactive) in the experiment with SF-539; 44 µM (inactive) with SK-MEL-5; 39.4 µM (inactive) in the experiment with BT-549; 33.7 µM (inactive) in the experiment on NCI-H226. Besides, the GI50 in the experiment on OVCAR-3 was 33.9 µM (inactive); with MDA-N, > 100 µM (inactive).
With `Cc1nc(N(C(C)C)C(C)C)c(C(C)C)o1`, the GI50 in the experiment on U-251, in the experiment on MDA-MB-231, in the experiment with UACC-257, in the experiment on IGROV-1, in the experiment on RXF 393 and with SNB-75 was > 100 µM (inactive) each time. Further, the GI50 is > 100 µM (inactive) in the experiment with HOP-62; > 100 µM (inactive) with ACHN; > 100 µM (inactive) in the experiment with SK-MEL-28; > 100 µM (inactive) with SK-OV-3; > 100 µM (inactive) with NCI-H522; above 100 µM in the experiment with HCT-15. Besides, the GI50 with COLO 205, in the experiment on OVCAR-8, in the experiment with SF-539, in the experiment with SK-MEL-5, in the experiment on BT-549 and with NCI-H226 was > 100 µM (inactive) throughout. Moreover, the GI50 in the experiment with OVCAR-3 and in the experiment with MDA-N was > 100 µM (inactive) each time.
As for `CC(=O)C1=C(C)N(c2ccccc2)C2(O)C3=C(C(=O)c4ccccc4C3=O)C(O)=CC12Cl` (stereo not given), the GI50 with U-251 is 4.76 µM (inactive); in the experiment on MDA-MB-231, 10.7 µM (inactive); in the experiment with UACC-257, 4.71 µM (inactive); in the experiment with IGROV-1 it was 2.71 µM (inactive); in the experiment on RXF 393, 5.85 µM (inactive); with SNB-75, 4.28 µM (inactive). The GI50 is 17.2 µM (inactive) with HOP-62; 5.11 µM (inactive) in the experiment on ACHN; 6.73 µM (inactive) with SK-MEL-28; 49.7 µM (inactive) with SK-OV-3; 2.55 µM (inactive) in the experiment on NCI-H522; 3.73 µM in the experiment on HCT-15. In addition, the GI50 is 5.21 µM (inactive) in the experiment on COLO 205; 4.08 µM (inactive) in the experiment on OVCAR-8; 4.09 µM (inactive) in the experiment on SF-539; 2.91 µM (inactive) with SK-MEL-5; 8.11 µM (inactive) with BT-549; 21.4 µM (inactive) in the experiment on NCI-H226. Further, the GI50 was 4.2 µM (inactive) with OVCAR-3 and 2.94 µM (inactive) with MDA-N.
For `CC1OC(OCC2OC(Oc3ccc(C4CC(=O)c5c(O)cc(O)cc5O4)cc3O)C(O)C(O)C2O)C(O)C(O)C1O` (stereo not given), the GI50 with U-251, in the experiment with MDA-MB-231, in the experiment with UACC-257, in the experiment on IGROV-1, in the experiment on RXF 393 and in the experiment with SNB-75 was > 100 µM (inactive) each time. Further, the GI50 was > 100 µM (inactive) in the experiment with HOP-62; > 100 µM (inactive) in the experiment on ACHN; > 100 µM (inactive) in the experiment with SK-MEL-28; > 100 µM (inactive) with SK-OV-3; > 100 µM (inactive) with NCI-H522; above 100 µM in the experiment on HCT-15. For the same compound, the GI50 with COLO 205, with OVCAR-8, with SF-539, with SK-MEL-5, in the experiment with BT-549 and in the experiment on NCI-H226 was > 100 µM (inactive) throughout. Moreover, the GI50 in the experiment on OVCAR-3 and in the experiment on MDA-N was > 100 µM (inactive) throughout.
